The text below walks through data of ChEMBL document CHEMBL2074132, “Functional characterization of the hepatic sodium-dependent taurocholate transporter stably transfected into an immortalized liver-derived cell line and V79 fibroblasts” (Eur J Cell Biol, 1996).

Format in all cases: functional, cell-based
In series [1] the target is T1, Hepatic sodium/bile acid cotransporter (Rattus norvegicus, UniProt P26435).
T1 sequence (P26435 whole entry): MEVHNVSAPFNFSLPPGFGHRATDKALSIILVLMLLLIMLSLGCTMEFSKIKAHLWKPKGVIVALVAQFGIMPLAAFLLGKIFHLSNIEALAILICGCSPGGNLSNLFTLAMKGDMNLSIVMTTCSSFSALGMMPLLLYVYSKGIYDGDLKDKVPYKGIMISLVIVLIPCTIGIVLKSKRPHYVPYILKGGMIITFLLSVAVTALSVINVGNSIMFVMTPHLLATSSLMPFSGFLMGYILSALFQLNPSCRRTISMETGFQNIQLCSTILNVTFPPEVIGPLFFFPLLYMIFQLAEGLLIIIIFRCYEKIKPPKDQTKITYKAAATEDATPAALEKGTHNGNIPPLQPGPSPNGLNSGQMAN
Put plainly: TP_TRANSPORTER: uptake in Ntcp-expressing HPCT-1E3 cells.

In series [2] the target is T1, Hepatic sodium/bile acid cotransporter. The series can be described thus: TP_TRANSPORTER: inhibition of Taurocholate uptake (Taurocholate: 10 uM, GC: 100 uM) in Ntcp-expressing HPCT-1E3 cells. To be noted: hpct-1e3, 100 µM.
The target is the same in series [3]. The series can be described thus: TP_TRANSPORTER: inhibition of Taurocholate uptake (Taurocholate: 10 uM, Oligomycin: 0.01mg/mL) in Ntcp-expressing HPCT-1E3 cells.

For `CCCCNc1cc(C(=O)O)cc(S(N)(=O)=O)c1Oc1ccccc1` [BUMETANIDE], the Activity result in series [1] is “is not a substrate [-]”.

Take `C[C@H](CCC(=O)NCC(=O)O)[C@H]1CC[C@H]2[C@@H]3[C@H](O)C[C@@H]4C[C@H](O)CC[C@]4(C)[C@H]3C[C@H](O)[C@]12C` [GLYCOCHOLIC ACID]: the Activity result is “is not a substrate [-]” in series [1] and “inhibitor [(at a rough estimate) 60 % of control]” in series [2].

Regarding `CC[C@H]1/C=C/C=C/C[C@@H](C)[C@H](O)[C@@](C)(O)C(=O)[C@@H](C)[C@H](O)[C@@H](C)C(=O)[C@@H](C)[C@H](O)[C@@H](C)/C=C/C(=O)O[C@@H]2[C@H](C)[C@H](CC1)O[C@]1(CC[C@H](C)[C@H](C[C@@H](C)O)O1)[C@H]2C` [OLIGOMYCIN], the Activity entry in series [3] was “inhibitor [(at a rough estimate) 10 % of control]”.
